The series is described as follows: recombinant barcode read abundance after kanamycin selection (control-corrected) (log10(CPM+1)); higher = more efficient recombination; sequences stand for … in AGTGCAGAGAAAATCGGCCAGTTTTCTCTGCCTGCAGTCCGCATGCCGT…AGATTTATGCAGCGGACTGCCTTTCTCCCAAAGTGATAAACCGGACAGTATCATGGACCGGTTTTCCCGGTAATCCGTATTTGCAAGGTTGGTTTCACT; site = the 11-nt target. In outline: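 Reported as log10(CPM+1), each value stands for recombination efficiency. That efficiency is the averaged, control-corrected counts per million of barcodes found at recombinant junctions. Cells from a pooled E. coli library pairing targets with IS621 bridge RNA target-binding loops were plated twice on chloramphenicol/ampicillin LB agar (control) and twice on chloramphenicol/ampicillin/kanamycin with 0.1 mM IPTG.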

Data on 59 sequences can be found in the supplement of paper PMC11208160.
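Note: IS621 recombinase and bridge RNA in Escherichia coli cells.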

Regarding “ACTCTGTCTTGGGTTCTAACCTGTTGCTT (site ACTCTGTCTAA)”, the “recombinant barcode read abundance (log10)” value was 1.86.

“ACTGATGCTTGGGTTCTAACCTGTTGCCT (site ACTGATACTAG)”: the “recombinant barcode read abundance (log10)” value was found to be 1.08.

On to “ACTGATGCTTGGGTTCTAACCTGTTGCCT (site ACTGATCCTAG)”, for which the “recombinant barcode read abundance (log10)” value was 0.0449.

With “ACTGATGCTTGGGTTCTAACCTGTTGCCT (site ACTGATGCTAG)”, the “recombinant barcode read abundance (log10)” value came to 2.09.

For the sequence “ACTGATGCTTGGGTTCTAACCTGTTGCCT (site ACTGATTCTAG)”, the “recombinant barcode read abundance (log10)” value turned out to be 0.0409.

For the sequence “ACTGTATCTTGGGTTCTAACCTGTTGCCT (site ACTGTATCTAG)”, the “recombinant barcode read abundance (log10)” value came to 1.13.

Take “ACTGTATCTTGGGTTCTAACCTGTTGCCT (site CCTGTATCTAG)”: the “recombinant barcode read abundance (log10)” value was found to be 0.134.

As for “ACTGTATCTTGGGTTCTAACCTGTTGCCT (site GCTGTATCTAG)”, the “recombinant barcode read abundance (log10)” value came out at 0.0734.

“ACTGTATCTTGGGTTCTAACCTGTTGCCT (site TCTGTATCTAG)”: the “recombinant barcode read abundance (log10)” value stood at 0.231.

With “ACTGTCACTTGGGTTCTAACCTGTTGCCT (site ACTGTCACTAG)”, the “recombinant barcode read abundance (log10)” value was 2.36.

Regarding “ACTGTCACTTGGGTTCTAACCTGTTGCCT (site ACTGTGACTAG)”, the “recombinant barcode read abundance (log10)” value was 0.0913.

As to “ACTGTGACTTGGGTTCTAACCTGTTGCCT (site ACTGTCACTAG)”, the “recombinant barcode read abundance (log10)” value is 0.317.

“ACTGTGACTTGGGTTCTAACCTGTTGCCT (site ACTGTGACTAG)”: the “recombinant barcode read abundance (log10)” value was found to be 2.71.

“ACTTAGACTTGGGTTCTAACCTGTTGCCC (site ACTTAGACTAG)”: the “recombinant barcode read abundance (log10)” value came to 0.424.

Regarding “ACTTAGACTTGGGTTCTAACCTGTTGCCC (site ACTTAGACTCG)”, the “recombinant barcode read abundance (log10)” value was found to be 0.333.

With “ACTTAGACTTGGGTTCTAACCTGTTGCCC (site ACTTAGACTGG)”, the “recombinant barcode read abundance (log10)” value stood at 1.46.

For “ACTTAGACTTGGGTTCTAACCTGTTGCCC (site ACTTAGACTTG)”, the “recombinant barcode read abundance (log10)” value is 0.

On to “ACTTAGTCTTGGGTTCTAACCTGTTGCTC (site ACTTAGTCTGA)”, for which the “recombinant barcode read abundance (log10)” value is 1.04.

Take “ACTTAGTCTTGGGTTCTAACCTGTTGCTC (site TGCCCCGCTAG)”: the “recombinant barcode read abundance (log10)” value was determined as 0.0305.

For the sequence “ACTTCAACTTGGGTTCTAACCTGTTGCCT (site ACATCAACTAG)”, the “recombinant barcode read abundance (log10)” value came out at 0.0253.

“ACTTCAACTTGGGTTCTAACCTGTTGCCT (site ACCTCAACTAG)”: the “recombinant barcode read abundance (log10)” value stood at 0.026.

As to “ACTTCAACTTGGGTTCTAACCTGTTGCCT (site ACGTCAACTAG)”, the “recombinant barcode read abundance (log10)” value came out at 0.161.

Consider “ACTTCAACTTGGGTTCTAACCTGTTGCCT (site ACTTCAACTAG)”, for which the “recombinant barcode read abundance (log10)” value came to 0.101.

With “ACTTCACCTTGGGTTCTAACCTGTTGCCT (site ACTTCACCTAG)”, the “recombinant barcode read abundance (log10)” value worked out at 1.02.

Consider “ACTTCACCTTGGGTTCTAACCTGTTGCCT (site ACTTCTGCTAG)”, for which the “recombinant barcode read abundance (log10)” value was determined as 0.0689.

“ACTTCTACTTGGGTTCTAACCTGTTGCCG (site ACTTCTACTCG)”: the “recombinant barcode read abundance (log10)” value stood at 0.195.

“ACTTCTACTTGGGTTCTAACCTGTTGCCG (site ACTTCTTCTAG)”: the “recombinant barcode read abundance (log10)” value worked out at 0.204.

As to “ACTTGACCTTGGGTTCTAACCTGTTGCGG (site ACTTGACCTCC)”, the “recombinant barcode read abundance (log10)” value was 2.31.

Turning to “ACTTGACCTTGGGTTCTAACCTGTTGCGG (site AGTTAACCTCC)”, the “recombinant barcode read abundance (log10)” value was determined as 0.

As for “ACTTGCCCTTGGGTTCTAACCTGTTGCCT (site AATTGCCCTAG)”, the “recombinant barcode read abundance (log10)” value was 0.0465.

In the case of “ACTTGCCCTTGGGTTCTAACCTGTTGCCT (site ACTTGCCCTAG)”, the “recombinant barcode read abundance (log10)” value was found to be 0.925.

With “ACTTGCCCTTGGGTTCTAACCTGTTGCCT (site AGTTGCCCTAG)”, the “recombinant barcode read abundance (log10)” value worked out at 0.00674.

As for “ACTTGCCCTTGGGTTCTAACCTGTTGCCT (site ATTTGCCCTAG)”, the “recombinant barcode read abundance (log10)” value turned out to be 0.57.

For the sequence “ACTTTGTCTTGGGTTCTAACCTGTTGCCT (site ACATTGTCTAG)”, the “recombinant barcode read abundance (log10)” value is 0.0289.

“ACTTTGTCTTGGGTTCTAACCTGTTGCCT (site ACCTTGTCTAG)”: the “recombinant barcode read abundance (log10)” value was 0.085.

For the sequence “ACTTTGTCTTGGGTTCTAACCTGTTGCCT (site ACGTTGTCTAG)”, the “recombinant barcode read abundance (log10)” value stood at 0.0449.

“ACTTTGTCTTGGGTTCTAACCTGTTGCCT (site ACTTTGTCTAG)”: the “recombinant barcode read abundance (log10)” value worked out at 0.596.

In the case of “AGAAACACTTGGGTTCTAACCTGTTGCCT (site AGAAACACTAG)”, the “recombinant barcode read abundance (log10)” value amounted to 1.34.

In the case of “AGAAACACTTGGGTTCTAACCTGTTGCCT (site AGGAACACTAG)”, the “recombinant barcode read abundance (log10)” value amounted to 0.0546.

In the case of “AGAAATTCTTGGGTTCTAACCTGTTGCCT (site AGAAATTCTAG)”, the “recombinant barcode read abundance (log10)” value turned out to be 0.52.

For “AGAAATTCTTGGGTTCTAACCTGTTGCCT (site AGCAATTCTAG)”, the “recombinant barcode read abundance (log10)” value worked out at 0.0252.

Take “AGAAATTCTTGGGTTCTAACCTGTTGCCT (site AGGAATTCTAG)”: the “recombinant barcode read abundance (log10)” value worked out at 0.111.

“AGAAATTCTTGGGTTCTAACCTGTTGCCT (site AGTAATTCTAG)”: the “recombinant barcode read abundance (log10)” value amounted to 0.0316.

For the sequence “AGAAGTCCTTGGGTTCTAACCTGTTGCTG (site AGAAGTCCTCA)”, the “recombinant barcode read abundance (log10)” value is 1.11.

As to “AGAAGTCCTTGGGTTCTAACCTGTTGCTG (site AGAAGTCCTCC)”, the “recombinant barcode read abundance (log10)” value was 0.0845.

For “AGAAGTCCTTGGGTTCTAACCTGTTGCTG (site AGAAGTCCTCG)”, the “recombinant barcode read abundance (log10)” value amounted to 0.0922.

On to “AGAAGTCCTTGGGTTCTAACCTGTTGCTG (site AGAAGTCCTCT)”, for which the “recombinant barcode read abundance (log10)” value was 0.773.

Take “AGAATCCCTTGGGTTCTAACCTGTTGCTA (site AGAATCCCTTA)”: the “recombinant barcode read abundance (log10)” value was 1.74.

For “AGAATCCCTTGGGTTCTAACCTGTTGCTA (site GCAATCCCTTA)”, the “recombinant barcode read abundance (log10)” value was 0.106.

Regarding “AGACGTCCTTGGGTTCTAACCTGTTGCGT (site AGACGTCCTAC)”, the “recombinant barcode read abundance (log10)” value is 2.51.

For the sequence “AGACGTCCTTGGGTTCTAACCTGTTGCGT (site ATACGTCCTAT)”, the “recombinant barcode read abundance (log10)” value came to 0.233.

Regarding “AGACTAACTTGGGTTCTAACCTGTTGCTT (site AGACTAACTAA)”, the “recombinant barcode read abundance (log10)” value is 0.715.

Consider “AGACTAACTTGGGTTCTAACCTGTTGCTT (site GGACTAACTAG)”, for which the “recombinant barcode read abundance (log10)” value came out at 0.0387.

As for “AGACTCTCTTGGGTTCTAACCTGTTGCCT (site AGACTCTCTAG)”, the “recombinant barcode read abundance (log10)” value was determined as 2.01.

Turning to “AGACTCTCTTGGGTTCTAACCTGTTGCCT (site ATACTCTCTAG)”, the “recombinant barcode read abundance (log10)” value was determined as 0.377.

“AGACTTCCTTGGGTTCTAACCTGTTGCTT (site AGACATCCTAA)”: the “recombinant barcode read abundance (log10)” value came to 0.158.

Regarding “AGACTTCCTTGGGTTCTAACCTGTTGCTT (site AGACCTCCTAA)”, the “recombinant barcode read abundance (log10)” value was found to be 0.121.

As to “AGACTTCCTTGGGTTCTAACCTGTTGCTT (site AGACGTCCTAA)”, the “recombinant barcode read abundance (log10)” value was determined as 0.0179.

Consider “AGACTTCCTTGGGTTCTAACCTGTTGCTT (site AGACTTCCTAA)”, for which the “recombinant barcode read abundance (log10)” value amounted to 0.811.
